System: subjects with AK on the face or scalp
Test: Phase 2a study KX01-AK-002: local skin reactions (grade 0 not present to 4 worst) and adverse events, 0.5 mg KX-01 on 25 cm^2
Assay type: in vivo, human
From the text: An ongoing Phase 2a, open-label, multicenter, activity and safety study of KX-01 administered topically in subjects with AK on the face or scalp is described herein. […] Secondary objectives are to assess the activity of KX-01 administered topically during Days 1-57 based on reduction of AK lesion counts from baseline, assess the safety and tolerability and pharmacokinetics, and contrast the dose regimens (5-day treatment with 3-day treatment) in terms of activity and safety in subjects with AK on the face or scalp. This uncontrolled, nonrandomized trial is being conducted at 16 investigational sites in the United States. Enrollment is sequential for 2 cohorts of approximately 80 subjects each. Enrollment is closed for Cohort 1 and ongoing for Cohort 2. The two treatment cohorts are summarized below: • Cohort 1: 0.5 mg KX-01 administered topically to a contiguous treatment area of 25 cm^2 with 4-8 clinically typical AK lesions for 5 consecutive days • Cohort 2: 0.5 mg KX-01 administered topically to a contiguous treatment area of 25 cm^2 with 4-8 clinically typical AK lesions for 3 consecutive days
0.5 mg KX-01 is administered topically to an area of 25 cm^2 on the face or scalp by site staff on treatment days. […] AK lesion counts are recorded at baseline, days 8, 15, 29, and 57. […] Standardized photography of treatment area is performed at baseline, day 8 and day 57. Plasma samples are being collected at preplanned time points on days 1 and 5 for Cohort 1, and on days 1 and 3 for Cohort 2.
Absence or presence of hyperpigmentation, hypopigmentation and scarring are also assessed. Application site reactions not classified as LSRs are reported as AEs. […] LSRs and AEs are reported separately. All LSRs, pigmentation, and scarring in the treatment area will be followed to resolution or stabilization.
The range of possible composite scores is 0-24.
The Phase 2a trial described in Example 2a was completed with 84 eligible subjects enrolled in each of two cohorts: one cohort was subjected to the treatment for 5 consecutive days, and the other cohort was subjected to the treatment for 3 consecutive days. The results are described below and in FIG. 5.

O=C(Cc1ccc(-c2ccc(OCCN3CCOCC3)cc2)cn1)NCc1ccccc1 [KX-01]
Vesiculation/Pustulation grade 3, n/N subjects (Day 8, Cohort 1 (5-day)): 0 | Vesiculation/Pustulation grade 4, n/N subjects (Day 8, Cohort 1 (5-day)): 0 | Crusting grade 0, n/N subjects (Day 15, Cohort 1 (5-day)): 63/67 | Crusting grade 1, n/N subjects (Day 15, Cohort 1 (5-day)): 4/67 | Crusting grade 2, n/N subjects (Day 15, Cohort 1 (5-day)): 0 | Crusting grade 3, n/N subjects (Day 15, Cohort 1 (5-day)): 0 | Crusting grade 4, n/N subjects (Day 15, Cohort 1 (5-day)): 0 | Erosion/Ulceration grade 0, n/N subjects (Day 15, Cohort 1 (5-day)): 66/67 | Erosion/Ulceration grade 1, n/N subjects (Day 15, Cohort 1 (5-day)): 1/67 | Erosion/Ulceration grade 2, n/N subjects (Day 15, Cohort 1 (5-day)): 0 | Erosion/Ulceration grade 3, n/N subjects (Day 15, Cohort 1 (5-day)): 0 | Erosion/Ulceration grade 4, n/N subjects (Day 15, Cohort 1 (5-day)): 0 | Erythema grade 0, n/N subjects (Day 15, Cohort 1 (5-day)): 27/67 | Erythema grade 1, n/N subjects (Day 15, Cohort 1 (5-day)): 25/67 | Erythema grade 2, n/N subjects (Day 15, Cohort 1 (5-day)): 13/67 | Erythema grade 3, n/N subjects (Day 15, Cohort 1 (5-day)): 2/67 | Erythema grade 4, n/N subjects (Day 15, Cohort 1 (5-day)): 0 | Flaking/Scaling grade 0, n/N subjects (Day 15, Cohort 1 (5-day)): 39/67 | Flaking/Scaling grade 1, n/N subjects (Day 15, Cohort 1 (5-day)): 14/67 | Flaking/Scaling grade 2, n/N subjects (Day 15, Cohort 1 (5-day)): 9/67 | Flaking/Scaling grade 3, n/N subjects (Day 15, Cohort 1 (5-day)): 5/67 | Flaking/Scaling grade 4, n/N subjects (Day 15, Cohort 1 (5-day)): 0 | Swelling grade 0, n/N subjects (Day 15, Cohort 1 (5-day)): 67/67 | Swelling grade 1, n/N subjects (Day 15, Cohort 1 (5-day)): 0 | Swelling grade 2, n/N subjects (Day 15, Cohort 1 (5-day)): 0 | Swelling grade 3, n/N subjects (Day 15, Cohort 1 (5-day)): 0 | Swelling grade 4, n/N subjects (Day 15, Cohort 1 (5-day)): 0 | Vesiculation/Pustulation grade 0, n/N subjects (Day 15, Cohort 1 (5-day)): 67/67 | Vesiculation/Pustulation grade 1, n/N subjects (Day 15, Cohort 1 (5-day)): 0 | Vesiculation/Pustulation grade 2, n/N subjects (Day 15, Cohort 1 (5-day)): 0 | Vesiculation/Pustulation grade 3, n/N subjects (Day 15, Cohort 1 (5-day)): 0 | Vesiculation/Pustulation grade 4, n/N subjects (Day 15, Cohort 1 (5-day)): 0 | Crusting grade 0, n/N subjects (Day 29, Cohort 1 (5-day)): 65/67 | Crusting grade 1, n/N subjects (Day 29, Cohort 1 (5-day)): 2/67 | Crusting grade 2, n/N subjects (Day 29, Cohort 1 (5-day)): 0 | Crusting grade 3, n/N subjects (Day 29, Cohort 1 (5-day)): 0 | Crusting grade 4, n/N subjects (Day 29, Cohort 1 (5-day)): 0 | Erosion/Ulceration grade 0, n/N subjects (Day 29, Cohort 1 (5-day)): 67/67 | Erosion/Ulceration grade 1, n/N subjects (Day 29, Cohort 1 (5-day)): 0 | Erosion/Ulceration grade 2, n/N subjects (Day 29, Cohort 1 (5-day)): 0 | Erosion/Ulceration grade 3, n/N subjects (Day 29, Cohort 1 (5-day)): 0 | Erosion/Ulceration grade 4, n/N subjects (Day 29, Cohort 1 (5-day)): 0 | Erythema grade 0, n/N subjects (Day 29, Cohort 1 (5-day)): 45/67 | Erythema grade 1, n/N subjects (Day 29, Cohort 1 (5-day)): 18/67 | Erythema grade 2, n/N subjects (Day 29, Cohort 1 (5-day)): 4/67 | Erythema grade 3, n/N subjects (Day 29, Cohort 1 (5-day)): 0 | Erythema grade 4, n/N subjects (Day 29, Cohort 1 (5-day)): 0 | Flaking/Scaling grade 0, n/N subjects (Day 29, Cohort 1 (5-day)): 51/67 | Flaking/Scaling grade 1, n/N subjects (Day 29, Cohort 1 (5-day)): 13/67 | Flaking/Scaling grade 2, n/N subjects (Day 29, Cohort 1 (5-day)): 2/67 | Flaking/Scaling grade 3, n/N subjects (Day 29, Cohort 1 (5-day)): 1/67 | Flaking/Scaling grade 4, n/N subjects (Day 29, Cohort 1 (5-day)): 0 | Swelling grade 0, n/N subjects (Day 29, Cohort 1 (5-day)): 66/67 | Swelling grade 1, n/N subjects (Day 29, Cohort 1 (5-day)): 1/67 | Swelling grade 2, n/N subjects (Day 29, Cohort 1 (5-day)): 0 | Swelling grade 3, n/N subjects (Day 29, Cohort 1 (5-day)): 0 | Swelling grade 4, n/N subjects (Day 29, Cohort 1 (5-day)): 0 | Vesiculation/Pustulation grade 0, n/N subjects (Day 29, Cohort 1 (5-day)): 67/67 | Vesiculation/Pustulation grade 1, n/N subjects (Day 29, Cohort 1 (5-day)): 0 | Vesiculation/Pustulation grade 2, n/N subjects (Day 29, Cohort 1 (5-day)): 0 | Vesiculation/Pustulation grade 3, n/N subjects (Day 29, Cohort 1 (5-day)): 0 | Vesiculation/Pustulation grade 4, n/N subjects (Day 29, Cohort 1 (5-day)): 0 | Crusting grade 0, n/N subjects (Day 57, Cohort 1 (5-day)): 63/67 | Crusting grade 1, n/N subjects (Day 57, Cohort 1 (5-day)): 4/67 | Crusting grade 2, n/N subjects (Day 57, Cohort 1 (5-day)): 0 | Crusting grade 3, n/N subjects (Day 57, Cohort 1 (5-day)): 0 | Crusting grade 4, n/N subjects (Day 57, Cohort 1 (5-day)): 0 | Erosion/Ulceration grade 0, n/N subjects (Day 57, Cohort 1 (5-day)): 67/67 | Erosion/Ulceration grade 1, n/N subjects (Day 57, Cohort 1 (5-day)): 0 | Erosion/Ulceration grade 2, n/N subjects (Day 57, Cohort 1 (5-day)): 0 | Erosion/Ulceration grade 3, n/N subjects (Day 57, Cohort 1 (5-day)): 0 | Erosion/Ulceration grade 4, n/N subjects (Day 57, Cohort 1 (5-day)): 0 | Erythema grade 0, n/N subjects (Day 57, Cohort 1 (5-day)): 53/67 | Erythema grade 1, n/N subjects (Day 57, Cohort 1 (5-day)): 12/67 | Erythema grade 2, n/N subjects (Day 57, Cohort 1 (5-day)): 2/67 | Erythema grade 3, n/N subjects (Day 57, Cohort 1 (5-day)): 0 | Erythema grade 4, n/N subjects (Day 57, Cohort 1 (5-day)): 0 | Flaking/Scaling grade 0, n/N subjects (Day 57, Cohort 1 (5-day)): 57/67 | Flaking/Scaling grade 1, n/N subjects (Day 57, Cohort 1 (5-day)): 10/67 | Flaking/Scaling grade 2, n/N subjects (Day 57, Cohort 1 (5-day)): 0 | Flaking/Scaling grade 3, n/N subjects (Day 57, Cohort 1 (5-day)): 0 | Flaking/Scaling grade 4, n/N subjects (Day 57, Cohort 1 (5-day)): 0 | Swelling grade 0, n/N subjects (Day 57, Cohort 1 (5-day)): 67/67 | Swelling grade 1, n/N subjects (Day 57, Cohort 1 (5-day)): 0 | Swelling grade 2, n/N subjects (Day 57, Cohort 1 (5-day)): 0 | Swelling grade 3, n/N subjects (Day 57, Cohort 1 (5-day)): 0 | Swelling grade 4, n/N subjects (Day 57, Cohort 1 (5-day)): 0 | Vesiculation/Pustulation grade 0, n/N subjects (Day 57, Cohort 1 (5-day)): 67/67 | Vesiculation/Pustulation grade 1, n/N subjects (Day 57, Cohort 1 (5-day)): 0 | Vesiculation/Pustulation grade 2, n/N subjects (Day 57, Cohort 1 (5-day)): 0 | Vesiculation/Pustulation grade 3, n/N subjects (Day 57, Cohort 1 (5-day)): 0 | Vesiculation/Pustulation grade 4, n/N subjects (Day 57, Cohort 1 (5-day)): 0 | Grade 4 LSRs (after 5 days of treatment, interim): no Grade 4 LSRs were observed | Safety and tolerability (topically once daily for 5 days): safe and well tolerated
